Patent publication US8765746B2 (Millennium Pharmaceuticals, Inc., priority 2010, dated 2014)

Key:
Assay type in all cases: biochemical
PI3Kdelta = biological target: T1, PI3Kdelta (Homo sapiens, UniProt O00329); assay: Human PI3K delta enzyme assay (HTRF, as for PI3K alpha); details: for inhibition at 1.11 µM: read-out: PI3Kdelta % inh
T1 construct: His (N); host or cells: SF9 insect cells (baculovirus)
From the text: (§1) The catalytic subunits of PI3Ks are cloned into either pDEST8(p110 alpha) or pDEST10(p110beta, p110delta, and p110gamma) as N-terminal His tagged fusion proteins using the Gateway system (Invitrogen, catalog#11804-010 for pDEST8 and 11806-015 for pDEST10). The sequences are verified before recombinant protein expression using the Baculovirus Expression System with Gateway® Technology. The accession numbers for the subunits are as follows:
(§2) The regulatory subunits of PI3Ks are cloned into pDEST8 as un-tagged protein using the Gateway system (Catalog#11804-010). The sequences are verified before recombinant protein expression using the Baculovirus Expression System with Gateway® Technology. The accession numbers for the subunits are as follows:
(§3) For expression of the p110 complexes, the p85 (MOI of 4) is co-infected with p110 alpha, beta, and delta respectively (1MOI) in SF9 cells and harvested at 60 hours post co-infection. P110 gamma was infected at 1 MOI and harvested at 60 hours post infection.
(§4) For purification, PI3Ks are purified by Ni-NTA Agarose (Qiagen #30250) followed by Mono Q 10/100 GL (Ge Healthcare #17-5167-01). VPS34 is purified by Glutathione Sepharose 4 Fast Flow (GE Healthcare #17-5132-03) followed by HiTrap Q (GE Healthcare #17-1153-01).
(§5) 0.5 uL compounds in DMSO are added to wells of a 384 well microtitre plate (Corning 3575). At room temperature: 10 ul PI3K reaction buffer (50 mM Hepes, 5 mM DTT, 150 mM NaCl, 10 mM beta-glycerophosphate, 10 mM MgCl2, 0.25 mM sodium cholate and 0.001% CHAPS, pH 7.00) containing ATP (25 uM, Promega) is added followed immediately by 10 ul PI3K reaction buffer containing di-C8 PI(4,5)P2 (3.5 uM, CellSignals) and PI3Kalpha (0.4875 nM, Millennium Protein Sciences Group) and the mixture is incubated with shaking at room temperature for 30 minutes. Then 5 ul PI3K stop mix (50 mM Hepes, 5 mM DTT, 150 mM NaCl, 0.01% Tween-20, 15 mM EDTA and 25 nM biotin-PI(3,4,5)P3 (Echelon) is added to quench the reaction followed immediately by addition of 5 ul HTRF detection mix (50 mM Hepes, 5 mM DTT, 150 mM NaCl, 0.01% Tween-20, 40 mM KF, 10 nM GST:GRP-1 PH domain (Millennium Protein Sciences Group), 15 nM Streptavidin-XL (CisBio) and 0.375 nM anti-GST Eu++ antibody (CisBio) at pH 7.00). The plates are then incubated for 1 hour at room temperature with shaking and then read on a BMG PheraStar Plus reader.
(§6) 2) Human PI3K beta, delta and gamma isoforms are tested using the procedure described for PI3K alpha above but with the following changes: PI3K beta (5.25 nM), PI3K delta (0.75 nM) and PI3K gamma (5 nM). All isoforms supplied by Millennium Protein Science Group.

PI3Kgamma = biological target: T2, PI3Kgamma (Homo sapiens, UniProt P48736); assay: Human PI3K gamma enzyme assay (HTRF, as for PI3K alpha); details: for inhibition at 1.11 µM: read-out: PI3Kgamma % inh
T2 construct: His (N); host or cells: SF9 insect cells (baculovirus)
From the text: as §1, §2, §3, §4, §5, §6

VPS34 = biological target: T3, VPS34 (Homo sapiens, UniProt Q8NEB9); assay: Human VPS34 enzyme assay (Adapta Universal Kinase Assay); details: for inhibition at 1.11 µM: 1 h, read-out: VPS34 % ihn
T3 construct: GST (N); host or cells: SF9 insect cells (baculovirus)
T3 sequence (Q8NEB9 whole entry): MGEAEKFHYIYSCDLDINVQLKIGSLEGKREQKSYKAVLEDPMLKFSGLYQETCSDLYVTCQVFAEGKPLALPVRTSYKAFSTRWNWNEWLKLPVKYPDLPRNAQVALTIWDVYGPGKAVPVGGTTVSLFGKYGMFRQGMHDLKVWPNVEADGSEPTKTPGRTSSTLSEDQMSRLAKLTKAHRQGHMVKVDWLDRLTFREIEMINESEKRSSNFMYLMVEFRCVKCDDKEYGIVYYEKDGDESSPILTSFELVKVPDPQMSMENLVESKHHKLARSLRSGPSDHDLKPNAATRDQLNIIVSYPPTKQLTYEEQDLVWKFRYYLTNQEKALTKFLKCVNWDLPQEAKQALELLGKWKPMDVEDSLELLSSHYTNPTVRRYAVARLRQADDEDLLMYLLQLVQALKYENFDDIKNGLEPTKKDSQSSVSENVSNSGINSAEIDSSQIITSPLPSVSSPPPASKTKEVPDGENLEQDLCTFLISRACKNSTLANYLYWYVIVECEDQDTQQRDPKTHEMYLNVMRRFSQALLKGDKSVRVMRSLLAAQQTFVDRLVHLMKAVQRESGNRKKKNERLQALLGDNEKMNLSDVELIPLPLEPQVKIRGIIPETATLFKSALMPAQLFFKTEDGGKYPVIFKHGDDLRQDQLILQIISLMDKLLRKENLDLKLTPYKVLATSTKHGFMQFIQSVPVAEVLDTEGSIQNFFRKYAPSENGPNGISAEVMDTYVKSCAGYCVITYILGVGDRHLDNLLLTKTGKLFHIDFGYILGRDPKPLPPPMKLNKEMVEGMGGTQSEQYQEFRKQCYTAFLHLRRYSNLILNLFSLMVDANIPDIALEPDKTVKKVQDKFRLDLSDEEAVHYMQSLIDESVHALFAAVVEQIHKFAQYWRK
Experimental: VPS34 (accession number GB:BC033004) is cloned into pDEST20-Thombin as N-terminal GST tagged fusion proteins using the Gateway system (Invitrogen, catalog#11804-013). The sequences are verified before recombinant protein expression using the Baculovirus Expression System with Gateway® Technology.
For expression VPS34 was infected at 1MOI in SF9 cells and harvested 72 hours post infection.
For purification, VPS34 is purified by Glutathione Sepharose 4 Fast Flow (GE Healthcare #17-5132-03) followed by HiTrap Q (GE Healthcare #17-1153-01).
3) VPS34 is assayed using Adapta™ Universal Kinase Assay Kit (Invitrogen).
4) Human VPS34 enzyme assay method
100 mL compounds in DMSO are added to wells of a 384 well microtitre plate (Greiner 780076). At room temperature: 5 ul VPS34 reaction buffer (Invitrogen Assay Buffer Q (diluted 1 in 5 with nanopure water) plus 2 mM DTT and 2 mM MnCl2) containing ATP (20 uM, Promega) and 200 uM PI-PS substrate (Invitrogen PV5122) is added followed immediately by 5 ul VPS34 reaction buffer (as above) containing VPS34 (5 nM, Millennium Protein Sciences Group) and the mixture is incubated with shaking at room temperature for 1 hour. Then 5 ul VPS34 stop-detect mix (as per Invitrogen Adapta Assay kit (PV5009) instructions (contains kinase quench buffer, TR-FRET buffer, Adapta Eu anti-ADP antibody and Alexa Fluor 647 ADP tracer)) is added to quench the reaction. The plates are then incubated for 30 minutes at room temperature with shaking and then read on a BMG PheraStar Plus reader.

PI3Kalpha = biological target: T4, PI3Kalpha (Homo sapiens, UniProt P42336); assay: Human PI3Kα enzyme assay (HTRF); details: for inhibition at 1.11 µM: read-out: PI3Kalpha % inh
T4 construct: His (N); host or cells: SF9 insect cells (baculovirus)
T4 sequence (P42336 whole entry): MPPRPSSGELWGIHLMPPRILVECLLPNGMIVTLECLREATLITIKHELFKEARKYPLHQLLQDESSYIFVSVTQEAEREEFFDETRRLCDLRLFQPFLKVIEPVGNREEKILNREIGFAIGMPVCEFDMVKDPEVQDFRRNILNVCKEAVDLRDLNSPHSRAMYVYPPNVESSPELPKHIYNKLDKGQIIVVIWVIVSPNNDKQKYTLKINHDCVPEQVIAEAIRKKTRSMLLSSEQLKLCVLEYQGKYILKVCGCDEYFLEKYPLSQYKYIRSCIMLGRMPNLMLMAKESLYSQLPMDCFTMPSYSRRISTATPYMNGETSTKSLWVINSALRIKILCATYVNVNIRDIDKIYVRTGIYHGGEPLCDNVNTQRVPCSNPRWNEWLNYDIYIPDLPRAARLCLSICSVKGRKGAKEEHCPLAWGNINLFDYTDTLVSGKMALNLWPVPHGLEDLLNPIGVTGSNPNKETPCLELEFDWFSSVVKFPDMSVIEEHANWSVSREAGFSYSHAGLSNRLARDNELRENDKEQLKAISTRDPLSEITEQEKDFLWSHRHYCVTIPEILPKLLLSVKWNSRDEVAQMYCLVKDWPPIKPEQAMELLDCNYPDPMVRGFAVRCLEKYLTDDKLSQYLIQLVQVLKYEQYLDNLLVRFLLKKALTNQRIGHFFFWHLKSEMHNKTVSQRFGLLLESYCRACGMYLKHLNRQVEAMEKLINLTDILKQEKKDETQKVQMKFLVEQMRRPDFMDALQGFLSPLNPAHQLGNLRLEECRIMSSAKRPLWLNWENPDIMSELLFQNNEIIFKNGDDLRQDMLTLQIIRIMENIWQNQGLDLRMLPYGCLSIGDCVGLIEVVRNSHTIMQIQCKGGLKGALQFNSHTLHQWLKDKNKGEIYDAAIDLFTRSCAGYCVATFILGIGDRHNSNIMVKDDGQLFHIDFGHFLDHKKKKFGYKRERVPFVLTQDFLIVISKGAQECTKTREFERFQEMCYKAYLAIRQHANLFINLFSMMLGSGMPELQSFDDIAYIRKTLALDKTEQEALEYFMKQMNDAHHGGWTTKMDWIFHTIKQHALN
T4 sequence (P27986 whole entry partner): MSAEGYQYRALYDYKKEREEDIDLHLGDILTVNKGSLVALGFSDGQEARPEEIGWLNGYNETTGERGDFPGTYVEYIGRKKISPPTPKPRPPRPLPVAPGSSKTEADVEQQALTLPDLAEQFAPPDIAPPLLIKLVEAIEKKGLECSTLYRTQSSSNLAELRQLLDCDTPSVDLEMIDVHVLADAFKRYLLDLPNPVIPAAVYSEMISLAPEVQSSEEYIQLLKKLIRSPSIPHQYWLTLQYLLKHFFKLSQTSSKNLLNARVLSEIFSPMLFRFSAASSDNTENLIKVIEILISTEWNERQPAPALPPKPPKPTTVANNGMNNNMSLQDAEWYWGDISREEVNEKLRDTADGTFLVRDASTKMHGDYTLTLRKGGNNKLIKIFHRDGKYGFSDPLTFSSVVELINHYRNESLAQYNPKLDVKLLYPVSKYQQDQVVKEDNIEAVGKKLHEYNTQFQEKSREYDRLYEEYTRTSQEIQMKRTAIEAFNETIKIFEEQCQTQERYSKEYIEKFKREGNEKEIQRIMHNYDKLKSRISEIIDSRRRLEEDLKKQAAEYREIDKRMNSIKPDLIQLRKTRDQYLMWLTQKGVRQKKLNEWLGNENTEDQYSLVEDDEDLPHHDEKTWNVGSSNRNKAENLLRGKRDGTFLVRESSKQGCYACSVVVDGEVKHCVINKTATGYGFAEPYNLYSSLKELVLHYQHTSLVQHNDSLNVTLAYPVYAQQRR
In short: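 His-tagged p110α co-expressed with p85 in Sf9 cells was reacted for 30 min at room temperature in pH 7.00 Hepes buffer with 10 mM MgCl2. Addition solutions held 25 uM ATP, 3.5 uM di-C8 PI(4,5)P2 and 0.4875 nM enzyme. The reaction was quenched with EDTA/biotin-PIP3 and detected by HTRF (GST-GRP-1 PH domain, streptavidin-XL, Eu anti-GST) after 1 h.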

PI3Kbeta = biological target: T5, PI3Kbeta (Homo sapiens, UniProt P42338); assay: Human PI3K beta enzyme assay (HTRF, as for PI3K alpha); details: for IC50: read-out: IC50 (inhibit PI3Kbeta); for inhibition at 1.11 µM: read-out: PI3Kbeta % inh
T5 construct: His (N); host or cells: SF9 insect cells (baculovirus)
T5 sequence (P42338 whole entry): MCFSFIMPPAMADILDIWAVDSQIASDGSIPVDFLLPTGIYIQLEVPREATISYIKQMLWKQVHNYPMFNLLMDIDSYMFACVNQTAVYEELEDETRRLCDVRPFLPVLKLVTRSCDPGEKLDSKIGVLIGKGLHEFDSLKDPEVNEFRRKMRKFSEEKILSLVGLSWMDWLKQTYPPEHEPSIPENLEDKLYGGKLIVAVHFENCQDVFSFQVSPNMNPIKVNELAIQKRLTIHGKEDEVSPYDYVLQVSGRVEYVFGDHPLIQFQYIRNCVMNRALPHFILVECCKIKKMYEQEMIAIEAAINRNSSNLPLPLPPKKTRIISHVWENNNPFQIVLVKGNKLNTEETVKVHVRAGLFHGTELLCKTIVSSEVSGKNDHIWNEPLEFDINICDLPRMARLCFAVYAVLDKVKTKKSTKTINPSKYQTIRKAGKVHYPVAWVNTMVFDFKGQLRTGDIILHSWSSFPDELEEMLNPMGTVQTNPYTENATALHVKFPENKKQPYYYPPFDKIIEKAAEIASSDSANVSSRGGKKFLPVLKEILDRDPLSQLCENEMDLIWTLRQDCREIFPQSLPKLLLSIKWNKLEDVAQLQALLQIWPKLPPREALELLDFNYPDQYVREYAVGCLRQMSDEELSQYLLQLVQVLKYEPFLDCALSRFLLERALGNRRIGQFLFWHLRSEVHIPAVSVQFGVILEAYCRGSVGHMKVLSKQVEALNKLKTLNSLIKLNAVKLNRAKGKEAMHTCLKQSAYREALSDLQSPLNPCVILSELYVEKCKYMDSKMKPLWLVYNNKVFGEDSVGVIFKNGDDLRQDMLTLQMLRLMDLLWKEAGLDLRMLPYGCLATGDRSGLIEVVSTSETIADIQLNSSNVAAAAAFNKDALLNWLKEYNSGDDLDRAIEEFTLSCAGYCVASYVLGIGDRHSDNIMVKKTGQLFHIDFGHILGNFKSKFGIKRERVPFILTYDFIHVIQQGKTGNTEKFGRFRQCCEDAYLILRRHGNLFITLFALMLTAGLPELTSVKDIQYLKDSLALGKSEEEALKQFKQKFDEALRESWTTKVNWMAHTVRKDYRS
T5 sequence (P27986 whole entry partner): as the sequence (P27986 whole entry partner) above
In short: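 N-His p110β/δ co-expressed with untagged p85 in Sf9, p110γ alone. Enzyme 5.25 nM (β), 0.75 nM (δ), 5 nM (γ), with ATP 25 uM and di-C8 PI(4,5)P2 3.5 uM (added-solution levels), pH 7.00, 30 min RT. HTRF read-out: biotin-PIP3, GST-GRP-1 PH domain, Eu anti-GST, streptavidin-XL.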

T1 sequence (O00329 whole entry): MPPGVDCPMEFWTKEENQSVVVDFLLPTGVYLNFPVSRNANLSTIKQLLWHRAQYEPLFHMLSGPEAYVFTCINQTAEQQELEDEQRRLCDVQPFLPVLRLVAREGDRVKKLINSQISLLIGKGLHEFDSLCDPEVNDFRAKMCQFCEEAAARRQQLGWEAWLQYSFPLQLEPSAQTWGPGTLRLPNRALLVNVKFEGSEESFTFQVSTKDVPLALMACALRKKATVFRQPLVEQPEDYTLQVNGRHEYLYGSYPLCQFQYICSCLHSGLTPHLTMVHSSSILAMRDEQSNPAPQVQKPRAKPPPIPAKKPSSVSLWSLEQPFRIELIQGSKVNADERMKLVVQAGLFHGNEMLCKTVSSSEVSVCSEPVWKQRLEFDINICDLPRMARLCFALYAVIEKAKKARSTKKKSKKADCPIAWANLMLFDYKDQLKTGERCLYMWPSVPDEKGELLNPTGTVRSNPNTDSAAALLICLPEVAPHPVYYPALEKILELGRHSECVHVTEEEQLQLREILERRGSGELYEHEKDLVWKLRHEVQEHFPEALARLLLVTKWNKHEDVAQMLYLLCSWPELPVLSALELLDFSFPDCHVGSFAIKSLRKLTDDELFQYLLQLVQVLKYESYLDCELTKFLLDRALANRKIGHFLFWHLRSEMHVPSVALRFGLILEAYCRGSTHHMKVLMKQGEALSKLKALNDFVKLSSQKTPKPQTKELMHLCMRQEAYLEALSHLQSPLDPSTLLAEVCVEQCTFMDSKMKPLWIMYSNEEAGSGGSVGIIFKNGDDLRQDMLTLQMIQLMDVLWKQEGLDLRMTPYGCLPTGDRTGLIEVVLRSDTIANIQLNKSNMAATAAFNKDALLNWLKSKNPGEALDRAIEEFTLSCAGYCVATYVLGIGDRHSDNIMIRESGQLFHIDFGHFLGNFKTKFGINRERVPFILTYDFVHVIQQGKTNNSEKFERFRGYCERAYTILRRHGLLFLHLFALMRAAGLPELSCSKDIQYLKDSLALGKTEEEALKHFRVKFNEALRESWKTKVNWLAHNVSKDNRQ
T1 sequence (P27986 whole entry partner): as the sequence (P27986 whole entry partner) above

Compound	PI3Kdelta % inh (PI3Kdelta; at 1.11 μM) [%]	PI3Kgamma % inh (PI3Kgamma; at 1.11 μM) [%]	VPS34 % ihn (VPS34; at 1.11 μM) [%]	PI3Kalpha % inh (PI3Kalpha; at 1.11 μM) [%]	PI3Kbeta % inh (PI3Kbeta; at 1.11 μM) [%]	IC50 (PI3Kbeta) [nM]	inhibition at 1.11 µM (PI3Kdelta) [%]	inhibition at 1.11 µM (PI3Kgamma) [%]	inhibition at 1.11 µM (VPS34) [%]	inhibition at 1.11 µM (PI3Kalpha) [%]	inhibition at 1.11 µM (PI3Kbeta; at 1.11 μM) [%]
CC(=O)Nc1cc(-c2cc3c(s2)C(=O)NCCC3c2ccc(Cl)cc2)ccn1 (centres unmarked) [Compound 1, N-{4-[4-(4-chlorophenyl)-8-oxo-5,6,7,8-tetrahydro-4H-thieno[2,3-c]azepin-2-yl]pyridin-2-yl}acetamide]						< 100	103	63.4	29.3	49.8	100
Clc1ccc(C2CCc3cn[nH]c3-c3sc(-c4ccncc4)cc32)cc1 (centres unmarked) [Compound 6, 6-(4-chlorophenyl)-8-pyridin-4-yl-1,4,5,6-tetrahydrothieno[3′,2′:6,7]cyclohepta[1,2-c]pyrazole]						< 100	70.7	14	10.1	27	97.9
CC(=O)Nc1cc(-c2cc3c(s2)C(=O)CCC3c2ccc(Cl)cc2)ccn1 (centres unmarked) [Compound 7, N-{4-[4-(4-chlorophenyl)-7-oxo-4,5,6,7-tetrahydro-1-benzothien-2-yl]pyridin-2-yl}acetamide]						100 to 1000	91.3	6.5	9.6	20.5	64.6
CC1(C)CC(=O)c2sc(-c3ccncc3)cc2C1c1ccc(Cl)cc1 (centres unmarked) [Compound 10, 4-(4-chlorophenyl)-5,5-dimethyl-2-pyridin-4-yl-5,6-dihydro-1-benzothiophen-7(4H)-one]						100 to 1000	32.4	6.7	0.1	0.2	71
Cc1nn2ccccc2c1-c1nc2c(s1)NC(=O)CCC2c1ccc(Cl)cc1 (centres unmarked) [Compound 11, 8-(4-chlorophenyl)-2-(2-methylpyrazolo[1,5-a]pyridin-3-yl)-4,6,7,8-tetrahydro-5H-[1,3]thiazolo[5,4-b]azepin-5-one]						100 to 1000	60.3	5.2	-4.2	36	71.6
Clc1ccc(C2Cc3cn[nH]c3-c3sc(-c4ccncc4)cc32)cc1 (centres unmarked) [Compound 12, 5-(4-chlorophenyl)-7-pyridin-4-yl-4,5-dihydro-1H-thieno[3,2-g]indazole]						100 to 1000	69	31	-6	9.4	73.2
O=C1CCCC(O)(c2ccc(Cl)cc2)c2cc(-c3ccncc3)sc21 (centres unmarked) [Compound 15, 4-(4-chlorophenyl)-4-hydroxy-2-pyridin-4-yl-4,5,6,7-tetrahydro-8H-cyclohepta[b]thiophen-8-one]						100 to 1000	26.4	4	2	3.1	65
CC1=CC(=O)Nc2sc(-c3ccncc3)cc2C1(C)c1ccc(Cl)cc1 (centres unmarked) [Compound 17, 4-(4-chlorophenyl)-4,5-dimethyl-2-pyridin-4-yl-4,8-dihydro-7H-thieno[2,3-b]azepin-7-one]						< 100	47.9	8.6	28.5	12.4	96.8

The remaining lines, values ahead:

PI3Kdelta % inh (PI3Kdelta; at 1.11 μM) [%]	PI3Kgamma % inh (PI3Kgamma; at 1.11 μM) [%]	VPS34 % ihn (VPS34; at 1.11 μM) [%]	PI3Kalpha % inh (PI3Kalpha; at 1.11 μM) [%]	PI3Kbeta % inh (PI3Kbeta; at 1.11 μM) [%]	IC50 (PI3Kbeta) [nM]	inhibition at 1.11 µM (PI3Kdelta) [%]	inhibition at 1.11 µM (PI3Kgamma) [%]	inhibition at 1.11 µM (VPS34) [%]	inhibition at 1.11 µM (PI3Kalpha) [%]	inhibition at 1.11 µM (PI3Kbeta; at 1.11 μM) [%]	Compound
31.200	4.500	10.900	3.700	69.800	100 to 1000						O=C1NCCC(c2ccc(Cl)cc2)c2cc(-c3ccncc3)sc21 (single isomer, unassigned) [Compound 25, 4-(4-chlorophenyl)-2-pyridin-4-yl-4,5,6,7-tetrahydro-8H-thieno[2,3-c]azepin-8-one]
					< 100	53.8	21.5	-4.1	18.8	104	O/N=C1/CCC(c2ccc(Cl)cc2)c2cc(-c3ccncc3)sc21 (centres unmarked) [Compound 18, (7Z)-4-(4-chlorophenyl)-2-pyridin-4-yl-5,6-dihydro-1-benzothiophen-7(4H)-one oxime]
					100 to 1000	43.1	8.1	-6.8	-0.4	86.5	O=C1CCCC(c2ccc(Cl)cc2)c2cc(-c3ccncc3)sc21 (centres unmarked) [Compound 19, 4-(4-chlorophenyl)-2-pyridin-4-yl-4,5,6,7-tetrahydro-8H-cyclohepta[b]thiophen-8-one]
					100 to 1000	60.4	6.6	0.9	23.6	68.2	Cc1nn2ccccc2c1-c1nc2c(s1)C(=O)CCC2c1ccc(Cl)cc1 (centres unmarked) [Compound 20, 4-(4-chlorophenyl)-2-(2-methylpyrazolo[1,5-a]pyridin-3-yl)-5,6-dihydro-1,3-benzothiazol-7(4H)-one]
					100 to 1000	23	10.9	-2	3.1	92.8	O=C1CC(c2ccc(Cl)cc2)c2cc(-c3ccncc3)sc21 (centres unmarked) [Compound 23, 4-(4-chlorophenyl)-2-(pyridin-4-yl)-4H-cyclopenta[b]thiophen-6(5H)-one]
						54.2	16.9	-6.9	13.8	98.1	O/N=C1\CCC(c2ccc(Cl)cc2)c2cc(-c3ccncc3)sc21 (centres unmarked) [Compound 24]
